Reference: patent publication US10617735B2, “Methods and compositions for preserving retinal ganglion cells” (Massachusetts Eye and Ear Infirmary, priority 2010, dated 2020)

How the values were obtained:
Type in all cases: in vivo, mouse
[1] = system: retinal ganglion cells (RGCs); assay: TUNEL staining after ON injury; details: one day after ON injury; intravitreal 3-MA (33.3 mM); compared to non-treated mice
Source text: Two mouse models of RGC death were utilized: optic nerve (ON) injury and N-methyl-D-aspartate (NMDA) retinal excitotoxicity. ON injury leads to RGC death as a result of primary damage to the axons, with its ensuing disruption of retrograde axonal transport (Libby et al., (2005) PLOS GENET 1:17-26) and is used as an RGC death model. In the ON injury model, mice were anesthetized and subjected to severe crush injury at 1-2 mm distance from the eyeball for 15 seconds using cross-action forceps taking special care not to interfere with the blood supply (Levkovitch-Verbin, (2004) EYE 18:1066-1074). […] Soon after injury, each group received an intravitreal injection (2 μl) with the respective compounds. In the NMDA retinal excitotoxicity model, NMDA (2 μl of a 0.1M stock; Sigma-Aldrich) was injected intravitreously in combination with ZVAD, Nec-1, or ZVAD plus Nec-1 and mice were separated into the aforementioned 4 groups. The dose of these compounds was selected based on previous studies (Karl et al., (2008) PROC NATL ACAD SCI USA 105:19508-19513; Knoferle et al., (2010) PROC NATL ACAD SCI USA 107:6064-6069; Nakazawa et al., (2006) J NEUROSCI 26:12633-12641; Rosenbaum et al., (2010) J NEUROSCI RES 88:1569-1576).
Intravitreal injections were performed as follows. Briefly, the tip of a 33 gauge needle (Hamilton, Reno, Nev.) was carefully inserted through the sclera into the intravitreal space to reduce intraocular pressure. Then, the needle was extracted, loaded with compounds and tangentially reinserted through the sclera into the intravitreal space, inducing a self-sealing wound tunnel. After injection, the absence of choroidal bleeding was confirmed. At specified times after injury, mice were sacrificed with an overdose of sodium pentobarbital, and eyes were enucleated.

[2] = system: retinal ganglion cells (RGCs); assay: Brn3b immunohistochemistry (viable RGCs) after ON injury; details: seven days after ON injury; intravitreal 3-MA (33.3 mM); effect less than ZVAD plus Nec-1
Source text: Two mouse models of RGC death were utilized: optic nerve (ON) injury and N-methyl-D-aspartate (NMDA) retinal excitotoxicity. ON injury leads to RGC death as a result of primary damage to the axons, with its ensuing disruption of retrograde axonal transport (Libby et al., (2005) PLOS GENET 1:17-26) and is used as an RGC death model. In the ON injury model, mice were anesthetized and subjected to severe crush injury at 1-2 mm distance from the eyeball for 15 seconds using cross-action forceps taking special care not to interfere with the blood supply (Levkovitch-Verbin, (2004) EYE 18:1066-1074). Injured mice were randomly divided into 4 groups for treatment: vehicle group (0.5% DMSO and 0.8% cyclodextrin in PBS, n=6), ZVAD group (300 n=6), Nec-1 group (4 mM, n=6), and ZVAD plus Nec-1 group (n=6). Soon after injury, each group received an intravitreal injection (2 μl) with the respective compounds. In the NMDA retinal excitotoxicity model, NMDA (2 μl of a 0.1M stock; Sigma-Aldrich) was injected intravitreously in combination with ZVAD, Nec-1, or ZVAD plus Nec-1 and mice were separated into the aforementioned 4 groups. […]

ROS = assay: Protein carbonyl contents in retina after ON injury (ELISA); details: one day after ON injury; intravitreal 3-MA; compared with untreated control
Method: It has been reported that RIP kinases control ROS generation during programmed necrosis (Cho et. al., (2009) CELL 137:1112-1123, Zhang et al., (2009) SCIENCE 325:332-336)). To investigate whether ROS play a roll in oxidative retinal damage after ON injury, protein level of carbonyl contents was analyzed using ELISA using the OxiSelect™ Protein Carbonyl ELISA Kit (Cell Biolabs, San Diego, Calif.).
To investigate the role of autophagy in RGC death after ON injury, we examined the effect of 3-methyladenine (3-MA) on RGCs death after ON injury. 3-MA inhibits autophagosome formation (Seglen and Gordon, (1982) PROC NATL ACAD SCI USA 79:1889-1892)). One day after ON injury, TUNEL assay was performed. […] In addition, the number of Brn3b positive cells and IPL thickness were also analyzed. […] To investigate whether ROS play a role in oxidative retinal damage after ON injury, protein level of carbonyl contents was analyzed using an ELISA kit (Cell Biolabs, San Diego, Calif.) according to the manufacturer's instructions. One day after ON injury, carbonyl contents decreased in the 3-MA treated group compared with untreated control (FIG. 10F).

[3] = system: retinal ganglion cells (RGCs); assay: IPL thickness and GCL with IPL thickness after ON injury (immunohistochemistry, SD-OCT); details: seven days after ON injury; intravitreal 3-MA (33.3 mM); effect less than ZVAD plus Nec-1
Method: An anti-TNF-α neutralizing antibody (0.1 mg/ml) or a control antibody was injected into the vitreous of mice that underwent ON injury. One week following injection, the number of RGCs were measured. In addition, inner plexiform layer (IPL) thickness (a location of RGC axons) was also assessed. Specifically, eyes were enucleated and RGC loss was quantified from histological sections of mouse retina. Only transverse sections involving the optic disc were used for analysis and the fields corresponding to approximately 400 μm of both sides of retina extending from the ON head (2 points/section×3 sections per eye, n=6) were examined with an optical microscope (×40 objectives). IPL thickness was measured with OpenLab software (Open Lab, Florence, Italy) (2 points/section×3 sections per eye, n=6). The ratio of IPL thickness was calculated as a percentage of IPL thickness in the normal mouse eyes (n=6).
Inner plexiform layer (IPL) thickness and ganglion cell layer (GCL) with IPL thickness (location of RGC cell bodies and axons) were measured using immunohistochemistry and a Spectral Domain Optical Coherence Tomography (SD-OCT) system (Bioptigen Inc., Durham, N.C.). […] The thickness of GCL+IPL was assessed at 500 μm, 400 μm, 300 μm distance from the ON head (nasally and temporally) as well as at 200 μm, 400 μm above and below the ON head.

Compound: Cn1cnc(N)c2ncnc1-2 [3-MA, 3-methyladenine]
- number of TUNEL positive cells [1]: small but statistically significant decline
- reduction of Brn3b positive cells [2]: significantly prevented the reduction
- carbonyl contents (protein level, ELISA) (ROS): decreased
- reduction of IPL thickness ratio [3]: significantly prevented the reduction
